Laboratory results taken from US20120251584A1, “Combination pharmaceutical composition and methods of treating diseases or conditions associated with the cardiovascular system” (priority 2010, published 2012).

What was measured:
[1] = system: Wistar rats with L-NAME endothelial dysfunction; assay: Correction of endothelial dysfunction simulated by L-NAME in rats; assay type: in vivo, rat
Description: Wistar rats weighed 250-300 g were divided into 4 groups. The 1st group received distilled water 9 ml/kg/day (every day, gastrointestinal introduction). […] The third group received L-NAME (12.5 mg/kg) in combination with a mixture of C12, C30, and C200 homeopathic dilutions of polyclonal rabbit antibodies to human endothelial NO synthase at 9 ml/kg/day. The 4th group received L-NAME ([…]) in combination with a mixture of C12, C30, and C200 homeopathic dilutions of polyclonal rabbit antibodies to human endothelial NO synthase at 9 ml/kg/day and mixture of C12, C30, C200 homeopathic dilutions of polyclonal rabbit antibodies to a C-terminal fragment of AT1 receptor of angiotensin II at 9 ml/kg/day.
Endothelial dysfunction was simulated by introducing L-NAME at […] in the course of 28 days. On day 29 from the beginning of the experiment, under anesthesia (sodium thiopental at 50 mg/kg), a catheter was inserted into the left carotid artery to register parameter of arterial pressure (AP). Bolus introduction of the pharmacological agent was made into right femoral vein. The following parameters were measured: systolic arterial pressure (SAP), diastolic arterial pressure (DAP), and frequency of heart beat, which were measured in real time by sensor TSD104A measurement apparatus MP100 made by Biopac System, Inc., USA. The following functional probes were used: endothelium-dependent vasodilation (EDV), intra-vein introduction of acetylcholine (AC) in the dose of 40 μg/kg, endothelium-independent vasodilation (EIV) via intravein introduction of sodium nitroprusside at 30 μ/kg.
The degree of endothelial dysfunction was evaluated via the coefficient of endothelial dysfunction as the ratio of the area of the triangle under the trend of reaction of stabilization of arterial pressure (AP) as a response to introduction of nitroprusside to the area of the triangle under the trend of reaction of stabilization of arterial pressure as a response to introduction of acetylcholine.

[2] = system: NISAG line male rats with hereditary stipulated stress-sensitive arterial hypertension; assay: NISAG rat hypertension model, systolic blood pressure; assay type: in vivo
Description: Investigations were conducted on 50 NISAG line male rats (weight 300 g, age 4 months) with hereditary stipulated stress-sensitive arterial hypertension, which were divided into 5 groups by 10 animals each.
Two times a week, 2 to 6 hours after administration of ULD antibodies and losartan, systolic blood pressure (SBP) was measured by an indirect method in a tail artery (using a cuff).

[3] = system: female Wistar rats with chronic heart failure (CHF); assay: Chronic heart failure (CHF) model induced by isadrine in rats: electrocardiogram, rheogram, exercise tolerance; settings: change in % on Day 28 vs. Day 7, gastric gavage
Description: Study of the efficacy of the combined drug based on ultra-low doses (ULD), i.e. the activated-potentiated solutions as described above, of antibodies to a C-terminal fragment of angiotensin II AT1 receptor and antibodies to endothelial NO synthase (mixture of homeopathic dilutions C12, C30 and C200) in chronic heart failure (CHF) was conducted in 75 female Wistar rats (4-5 months old, weighing 220-250 g).
For chronic heart failure modeling all rats were receiving isadrine (isoproterenol hydrochloride, Sigma, Germany) 80 mg/kg twice with 24-hour interval. Animals (15 per group) were receiving the following drugs by gastric gavage: group 1 —7.5 mL/kg of ULD of antibodies against a C-terminal fragment of angiotensin II AT1 receptor (mixture of homeopathic dilutions C12, C30 and C200), group 2 —7.5 mL/kg of ULD of anti-endothelial NO synthase antibodies (mixture of homeopathic dilutions C12, C30 and C200), group 3 —15 mL/kg of combined drug (mixture of homeopathic dilutions C12, C30 and C200), group 4 —7.5 mL/kg (dose of 10 mg/kg) of losartan as a comparator, group 5 (control)—7.5 mL/kg of distilled water.

[4] = functional probe: Acetyl choline 40 μg/kg, day 29
[5] = functional probe: Initial, day 29, L-NAME 28 days
[6] = functional probe: Sodium Nitroprusside, day 29

With `COC(=O)[C@@H](N)CCCNC(=N)N[N+](=O)[O-]` [L-NAME, L-NG-nitroarginine methyl ester] the “Vascular reaction observed with EDV with acetyl choline” value ([1]; area under the curve of restoration of arterial pressure, Acetyl choline probe) was 3700.2 ± 536.9, the “Vascular reaction observed with EIV with sodium nitroprusside” value ([1]; area under the curve of restoration of arterial pressure, Sodium Nitroprusside probe) was 11922.8 ± 1838.9 and the DAP [1, 4] was 64.7 ± 4.3 mm HG. For the same compound, the SAP [1, 4] was 111.3 ± 7.4 mm, HG, the DAP [1, 5] was 164.2 ± 5.9 mm HG and the SAP [1, 5] was 204.8 ± 10 mm, HG. The DAP [1, 6] was 61.4 ± 4.4 mm HG, the SAP [1, 6] was 118.2 ± 9.9 mm, HG and the “CED (coefficient of endothelial dysfunction)” value ([1]; ratio of nitroprusside area to acetylcholine area) was 3.5 ± 0.5 relative units.

`CCCCc1nc(Cl)c(CO)n1Cc1ccc(-c2ccccc2-c2nn[nH]n2)cc1` [Losartan, losartan] was tested, and the “Δ in comparison with the initial level, in mmHg” value ([2]; SBP after 28 days vs initial) was −33 mmHg, the “% of the initial level” value ([2]; SBP change after 28 days vs initial) was −19% and the “Initial SBP in mmHg” value ([2]; before treatment) was 173.5 mmHg. The “SBP after 28 days of medicine administration in mmHg” value ([2]; per orally once a day for 28 days) was 140.5 mmHg, the Cardiac output [3] was 55.31% and the Heart rate [3] was −21.28%. For the same compound, the “Systolic volume (by Kubrick)” value [3] was 64.01% and the T-wave amplitude [3] was −31.64%.
